Laboratory results reported in patent US6124498A, “Hydroxynaphthoic acids and derivatives” (University Of New Mexico, priority 1998, dated 2000).
“Also recorded” adds a separate entry of the source.

Tests used:
human LDH-M (LDH-M4) = target: T1, human LDH-M (LDH-M4) (Homo sapiens, UniProt P00338); assay: Inhibition of human lactate dehydrogenase LDH-M (LDH-M4), NADH reduction of pyruvate; assay type: biochemical; conditions: for mode of inhibition of LDH-M with respect to cofactor (NADH): vs cofactor NADH; for selectivity for LDH-M compared to LDH-H: LDH-M vs LDH-H; for change in inhibition / dissociation constant of LDH-M relative to 13: group at 7-position, compared to 13
T1 construct: purchased Sigma
Procedure: Recombinant pLDH was produced in E. coli, similar to the procedure described by Bzik et al. in "Expression of Plasmodium falciparum Lactate Dehydrogenase in Escherida coli." in Mol. Biochem. Parasitol., 1993, 59, 155-166 and was purified by Cibacron blue affinity chromatography and chromatofocusing as described previously. Human LDH-H4 and LDH-M4 were from Sigma.
(§1) LDH activity in the direction of NADH reduction of pyruvate to L-lactate was determined spectrophotometrically in pH 7.5 Tris buffer, 100 mM, containing 10 mM pyruvate and […], 25° C., 340 nm, ε=6.2 mM^-1 cm^-1. Michaelis constants were determined by nonlinear regression analysis of initial rate data using the Enzfitter program (Elsevier-Biosoft). Ki values were determined from double reciprocal plots by linear regression analysis.

pLDH [1] = target: T2, pLDH (Plasmodium falciparum, UniProt Q27743); assay: biochemical; assay type: biochemical; conditions: for mode of inhibition of pLDH with respect to cofactor (NADH): vs cofactor NADH; for selectivity for pLDH compared to LDH-H: pLDH vs LDH-H
T2 construct: made in house; host or cells: E. coli
T2 sequence (Q27743 whole entry): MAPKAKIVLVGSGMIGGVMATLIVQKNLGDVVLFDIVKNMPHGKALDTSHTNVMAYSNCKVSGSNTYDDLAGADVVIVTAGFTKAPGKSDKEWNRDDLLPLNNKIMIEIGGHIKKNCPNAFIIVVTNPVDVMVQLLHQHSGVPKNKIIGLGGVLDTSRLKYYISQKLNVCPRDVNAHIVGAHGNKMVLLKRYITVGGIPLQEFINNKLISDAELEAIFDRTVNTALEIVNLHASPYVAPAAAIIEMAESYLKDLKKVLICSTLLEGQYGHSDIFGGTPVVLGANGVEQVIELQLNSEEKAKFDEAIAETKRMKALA
Procedure: (§2) Human LDH-H4 and LDH-M4 were from Sigma.
as §1

alcohol dehydrogenase = assay: Inhibition of alcohol dehydrogenase; assay type: biochemical; conditions: FIG. 14D
Procedure: (§3) Other studies with other dehydrogenases that contain the classic Rossman fold, in addition to LDH, were carried out to test that inhibition of dehydrogenases by substituted didhydroxynaphthoic acids is not limited to inhibition of LDH. A number of dehydrogenases were examined as shown in FIGS. 14A (2,3-dihydroxy-6-methyl-7-(o-methylbenzyl)-4-(1-methylethyl)-1-naphthoic acid (25e) inhibition D-lactate dehydrogenase), 14B (2,3-dihydroxy-6-methyl-7-(m-methylbenzyl)-4-(1-methylethyl)-1-naphthoic acid (25f) inhibition of malate dehydrogenase), 14C (compound 25b inhibition of glucose 6-phosphate dehydrogenase) and 14D (compound 21e inhibition of alcohol dehydrogenase).

[2] = system: glucose 6-phosphate dehydrogenase; assay: Inhibition of glucose 6-phosphate dehydrogenase; assay type: biochemical; conditions: FIG. 14C
Procedure: as §3

human LDH-H (LDH-H4) = target: T3, human LDH-H (LDH-H4) (Homo sapiens, UniProt P07195); assay: Inhibition of human lactate dehydrogenase LDH-H (LDH-H4), NADH reduction of pyruvate; assay type: biochemical; conditions: group at 7-position, compared to 13
T3 construct: purchased Sigma
T3 sequence (P07195 2-334 limits assumed): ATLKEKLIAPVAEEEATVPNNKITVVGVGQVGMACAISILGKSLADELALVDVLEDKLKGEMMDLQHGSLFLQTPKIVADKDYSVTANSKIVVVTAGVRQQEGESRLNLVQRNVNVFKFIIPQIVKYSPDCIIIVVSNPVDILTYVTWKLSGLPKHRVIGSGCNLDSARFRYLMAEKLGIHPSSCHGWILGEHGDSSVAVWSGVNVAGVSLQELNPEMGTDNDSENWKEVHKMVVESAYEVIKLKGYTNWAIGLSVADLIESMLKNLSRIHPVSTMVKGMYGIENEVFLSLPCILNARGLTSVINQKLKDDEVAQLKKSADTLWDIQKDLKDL
Procedure: as §2, §1

pLDH [3] = target: T2, pLDH; assay: Quenching of intrinsic protein fluorescence of pLDH in presence and absence of ADP; assay type: binding; conditions: presence vs absence of ADP
Description: (§4) To test the Pan-Active Site inhibitor model for the compounds of the present invention, the binding of dihydroxynaphthoic acids to pLDH and human LDH was examined using fluorescence techniques. The effects of ADP on the binding of inhibitors was compared with the effects of ADP on the binding of NADH to determine which part of the cofactor binding site was the target of the inhibitors. Representative results are shown in FIGS. 13A and 13B for the binding of compound 25c to pLDH. […] In FIG. 13B is shown the quenching of pLDH fluorescence by compound 25c in the presence and absence of ADP.

LDH-M4 = assay: Quenching of intrinsic protein fluorescence of LDH-M4 in presence and absence of ADP; assay type: binding, human; conditions: presence vs absence of ADP
Description: as §4

D-lactate dehydrogenase = assay: Inhibition of D-lactate dehydrogenase; assay type: biochemical; conditions: FIG. 14A
Procedure: as §3

malate dehydrogenase = assay: Inhibition of malate dehydrogenase; assay type: biochemical; conditions: FIG. 14B
Procedure: as §3

[4] = system: IMP dehydrogenase type 11; conditions: dominant isoenzyme in neoplastic cells; cited from earlier work

With Cc1ccc2c(C(=O)O)c(O)c(O)c(C(C)C)c2c1 [Compound 13, 8-deoxyhemigossylic acid, reference compound] the “mode of inhibition of LDH-M with respect to cofactor (NADH)” value (human LDH-M (LDH-M4)) was “competitive with the binding of NADH”, the “dissociation constant for inhibition of pLDH” value (pLDH [1]; in words) was “low μmolar range” and the “mode of inhibition of pLDH with respect to cofactor (NADH)” value (pLDH [1]) was “competitive with the binding of NADH”.

In the case of Cc1ccc2c(C(=O)O)c(O)c(O)c(C)c2c1 [Compound 21a, 2,3-Dihydroxy-4,6-dimethyl-1-naphthoic acid], the “selectivity for LDH-M compared to LDH-H” value (human LDH-M (LDH-M4)) is reported as “selectivity for pLDH and LDH-M compared to LDH-H” and the “selectivity for pLDH compared to LDH-H” value (pLDH [1]) is reported as “selectivity for pLDH and LDH-M compared to LDH-H”.

With Cc1cc2c(C)c(O)c(O)c(C(=O)O)c2cc1C [Compound 21b, 2,3-Dihydroxy-4,6,7-trimethyl-1-naphthoic acid] the “selectivity for LDH-M compared to LDH-H” value (human LDH-M (LDH-M4)) was “selectivity for pLDH and LDH-M compared to LDH-H” and the “selectivity for pLDH compared to LDH-H” value (pLDH [1]) was “selectivity for pLDH and LDH-M compared to LDH-H”.

With Cc1cc2c(C)c(O)c(O)c(C(=O)O)c2cc1Cc1ccccc1 [Compound 21c, 7-Benzyl-2,3-dihydroxy-4,6-dimethyl-1-naphthoic acid] the “selectivity for LDH-M compared to LDH-H” value (human LDH-M (LDH-M4)) was “selectivity for pLDH and LDH-M compared to LDH-H” and the “selectivity for pLDH compared to LDH-H” value (pLDH [1]) was “selectivity for pLDH and LDH-M compared to LDH-H”.

In the case of CCCc1c(O)c(O)c(C(=O)O)c2cc(C)c(C)cc12 [Compound 21e, 2,3-Dihydroxy-6,7-dimethyl-4-n-propyl-1-naphthoic acid], the “inhibition of alcohol dehydrogenase” value (alcohol dehydrogenase) is reported as “inhibition” and the “selectivity for LDH-M compared to LDH-H” value (human LDH-M (LDH-M4)) is reported as 190 fold.

For Cc1cc2c(C(=O)O)c(O)c(O)c(C(C)C)c2cc1C [Compound 25a, 2,3-Dihydroxy-6,7-dimethyl-4-(1-methylethyl)-1-naphthoic acid], the “change in inhibition / dissociation constant of LDH-M relative to 13” value (human LDH-M (LDH-M4)) was “little change in the dissociation constants” and the “change in inhibition / dissociation constant of pLDH relative to 13” value (pLDH [1]; group at 7-position, compared to 13) was “little change in the dissociation constants”.

With Cc1cc2c(C(C)C)c(O)c(O)c(C(=O)O)c2cc1Cc1ccccc1 [Compound 25b, 7-Benzyl-2,3-dihydroxy-6-methyl-4-(1-methylethyl)-1-naphthoic acid] the “inhibition of glucose 6-phosphate dehydrogenase” value [2] was “inhibition”, the “change in inhibition / dissociation constant of LDH-H relative to 13” value (human LDH-H (LDH-H4)) was “markedly stronger inhibition” and the “change in inhibition / dissociation constant of LDH-M relative to 13” value (human LDH-M (LDH-M4)) was “markedly stronger inhibition”.

In the case of Cc1cc2c(C(C)C)c(O)c(O)c(C(=O)O)c2cc1Cc1ccc(C(F)(F)F)cc1 [Compound 25c, 7-p-Trifluoromethylbenzyl-2,3-dihydroxy-6-methyl-4-(1-methylethyl)-1-naphthoic acid], the “competition with the ADP part of the NADH binding site of pLDH” value (pLDH [3]) is reported as “not competing with the ADP part of the NADH binding site”, the “effect of ADP on binding to pLDH (fluorescence quenching)” value (pLDH [3]) is reported as “enhances the binding of inhibitor” and the “effect of ADP on binding to LDH-M4 (fluorescence quenching)” value (LDH-M4) is reported as “The same results were obtained with LDH-M4”. For the same molecule, the Ki (pLDH [1]; pH 7.5 Tris, 25° C., read-out: Ki for inhibition of pLDH) was 200 nM, the “selectivity for pLDH over LDH-H” value (pLDH [1]; pLDH over LDH-H) was 400 fold and the “selectivity for pLDH over LDH-M” value (pLDH [1]; pLDH over LDH-M) was 75 fold. For the same molecule, the “mode of inhibition of pLDH with respect to cofactor (NADH)” value (pLDH [1]) was “competitive against both cofactor and substrate”, the “selectivity for pLDH compared to either human LDH” value (pLDH [1]; vs human LDH-M and LDH-H) was “highly selective in favor of pLDH” and the “mode of inhibition of pLDH with respect to substrate” value (pLDH [1]; vs substrate (pyruvate)) was “competitive against both cofactor and substrate; also recorded: appears competitive”.

In the case of Cc1ccc(Cc2cc3c(C(=O)O)c(O)c(O)c(C(C)C)c3cc2C)cc1 [Compound 25d, 2,3-dihydroxy-6-methyl-7-(p-methylbenzyl)-4-(1-methylethyl)-1-naphthoic acid], the Kd (human LDH-M (LDH-M4); pH 7.5 Tris, 25° C.) is reported as 30 nM, the “mode of inhibition of LDH-M with respect to cofactor (NADH)” value (human LDH-M (LDH-M4)) is reported as “competitive against both cofactor and substrate” and the “mode of inhibition of LDH-M4 with respect to substrate” value (human LDH-M (LDH-M4); vs substrate (pyruvate), FIGS. 12A and 12B) is reported as “competitive against both cofactor and substrate”.

In the case of Cc1ccccc1Cc1cc2c(C(=O)O)c(O)c(O)c(C(C)C)c2cc1C [Compound 25e, 2,3-dihydroxy-6-methyl-7-(o-methylbenzyl)-4-(1-methylethyl)-1-naphthoic acid], the “inhibition of D-lactate dehydrogenase” value (D-lactate dehydrogenase) is reported as “inhibition”.

With Cc1cccc(Cc2cc3c(C(=O)O)c(O)c(O)c(C(C)C)c3cc2C)c1 [Compound 25f, 2,3-dihydroxy-6-methyl-7-(m-methylbenzyl)-4-(1-methylethyl)-1-naphthoic acid] the “inhibition of malate dehydrogenase” value (malate dehydrogenase) was “inhibition”.

With NC(=O)C1=CN([C@@H]2O[C@H](COP(=O)(O)OP(=O)(O)OC[C@H]3O[C@@H](n4cnc5c(N)ncnc54)[C@H](O)[C@@H]3O)[C@@H](O)[C@H]2O)C=CC1 [NADH, reference compound] the “effect of ADP on binding to pLDH (fluorescence quenching)” value (pLDH [3]) was “the presence of ADP competes with the binding of NADH”.

For NC(=O)c1csc([C@@H]2O[C@H](COP(=O)(O)OP(=O)(O)OC[C@H]3O[C@@H](n4cnc5c(N)ncnc54)[C@H](O)[C@@H]3O)[C@@H](O)[C@H]2O)n1 [thiazole-4-carboxamide adenine dinucleotide], the “inhibition of IMP dehydrogenase type 11” value [4] is given as “potent inhibitor”.
